Test results reported in EP0403249A1, “Leukotriene antagonists” (SMITHKLINE BEECHAM CORPORATION, priority 1989, dated 1990).

Test system: LTD₄
Assay: Inhibition of leukotriene (LTD₄) induced contraction of guinea pig tracheal tissues in vitro
Settings: LTD₄ concentration-response on guinea pig tracheal spiral strips, 30 minutes pretreatment with test compound, EC₃₀ shift; current average where tested more than once
Experimental: The leukotriene antagonist activity of the compounds of this invention is measured by the ability of the compounds to inhibit the leukotriene induced contraction' of guinea pig tracheal tissues in vitro. The following methodology was employed: In vitro: Guinea pig (adult male albino Hartley strain) tracheal spiral strips of approximate dimensions 2 to 3 mm cross-sectional width and 3.5 cm length were bathed in modified Krebs buffer in jacketed 10 ml tissue bath and continuously aerated with 95% 0₂/5% CO₂. The tissues were connected via silk suture to force displacement transducers for recording isometric tension. The tissues were equilibrated for 1 hr., pretreated for 15 minutes with meclofenamic acid (1uM) to remove intrinsic prostaglandin responses, and then pretreated for an additional 30 minutes with either the test compound or vehicle control. A cumulative concentration-response curve for LTD₄ on triplicate tissues was generated by successive increases in the bath concentration of the LTD₄. In order to minimize intertissue variability, the contractions elicited by LTD₄ were standardized as a percentage of the maximum response obtained to a reference agonist, carbachol (10uM).
Calculations: The averages of the triplicate LTD₄ concentration-response curves both in the presence and absence of the test compound were plotted on log graph paper. The concentration of LTD₄ needed to elicit 30% of the contraction elicited by carbachol was measured and defined as the EC₃₀. The -log KB value for the test compound was determined by the following equations: [formula] 2. KB= concentration of test compound/(X-1)
The antagonist activity of representative compounds of this invention is listed in Table I. The -log KB values were calculated from the above protocol. Where compounds were tested more than once, the -log KB values given here represent the current average data.

O=C(O)c1ccc(SC(c2ccccc2CCCCCCCCc2ccccc2)C(O)C(=O)O)cc1 (stereo not shown) [5), 2-Hydroxy-3-(4-carboxyphenylthio)-3-[2-(8-phenyloctyl)phenyl]propionic acid]
In Vitro-Log KB: 7.6

COc1cc(C(=O)O)ccc1CSC(c1ccccc1CCCCCCCCc1ccccc1)C(OC)C(=O)O (stereo not shown) [11), 2-Methoxy-3-(4-carboxy-2-methoxyphenylmethylthio)-3-[2-(8-phenyloctyl)phenyl]propionic acid]
In Vitro-Log KB: 7.4

COC(C(=O)O)C(Sc1ccc(C(=O)O)cc1)c1ccccc1CCCCCCCCc1ccccc1 (stereo not shown) [9), 2-Methoxy-3-(4-carboxyphenylthio)-3-[2-(8-phenyloctyl)phenyl]propionic acid]
In Vitro-Log KB: 7.6

O=C(O)c1ccc(CSC(c2ccccc2CCCCCCCCc2ccccc2)C(O)C(=O)O)cc1 (stereo not shown) [7), 2-Hydroxy-3-(4-carboxyphenylmethylthio)-3-[2-(8-phenyloctyl)phenyl]propionic acid]
In Vitro-Log KB: 7.1

O=C(O)c1ccccc1SC(c1ccccc1CCCCCCCCc1ccccc1)C(O)C(=O)O (stereo not shown) [1), 2-Hydroxy-3-(2-carboxyphenylthio)-3-[2-(8-phenyloctyl)phenyl]propionic acid]
In Vitro-Log KB: 5.5

O=C(O)c1cccc(CS[C@H](c2ccccc2CCCCCCCCc2ccccc2)[C@@H](O)C(=O)O)c1 [3), 2(S)-Hydroxy-3(R)-(3-carboxyphenylmethylthio)-3-[2-(8-phenyloctyl)phenyl]propionic acid]
In Vitro-Log KB: 6.6

O=C(O)C(O)C(Sc1ccc(O)cc1)c1ccccc1CCCCCCCCc1ccccc1 (stereo not shown) [10), 2-Hydroxy-3-(4-hydroxyphenylthio)-3-[2-(8-phenyloctyl)phenyl]propionic acid]
In Vitro-Log KB: 5.9

O=C(O)c1ccc(CSC(c2ccccc2CCCCCCCCc2ccccc2)C(O)C(=O)O)c(F)c1 (stereo not shown) [8), 2-Hydroxy-3-(2-fluoro-4-carboxyphenylmethylthio)-3-[2-(8-phenyloctyl)phenyl]propionic acid]
In Vitro-Log KB: 7.8

COc1ccc(C(=O)O)cc1CSC(c1ccccc1CCCCCCCCc1ccccc1)C(O)C(=O)O (stereo not shown) [13), 2-Hydroxy-3-[(5-carboxy-2-methoxyphenylmethyl)thio]-3-[2-(8-phenyloctyl)phenyl]propionic acid]
In Vitro-Log KB: 6.5

COc1cc(C(=O)O)ccc1CSC(CC(=O)O)c1ccccc1CCCCCCCCc1ccccc1 (stereo not shown) [12), 3-(4-Carboxy-2-methoxyphenylmethylthio)-3-[2-(8-phenyloctyl)phenyl]propionic acid]
In Vitro-Log KB: 7.5

COc1cc(C(=O)O)ccc1CSC(c1ccccc1CCCCCCCCc1ccccc1)C(O)C(=O)O (stereo not shown) [6), 2-Hydroxy-3-(4-carboxy-2-methoxyphenylmethylthio)-3-[2-(8-phenyloctyl)phenyl]propionic acid]
In Vitro-Log KB: 7.9

O=C(O)c1ccccc1CS[C@H](c1ccccc1CCCCCCCCc1ccccc1)[C@@H](O)C(=O)O [2), 2(S)-Hydroxy-3(R)-(2-carboxyphenylmethylthio)-3-[2-(8-phenyloctyl)phenyl]propionic acid]
In Vitro-Log KB: 6.2

O=C(O)c1cccc(SC(c2ccccc2CCCCCCCCc2ccccc2)C(O)C(=O)O)c1 (stereo not shown) [4), 2-Hydroxy-3-(3-carboxyphenylthio)-3-[2-(8-phenyloctyl)phenyl]propionic acid]
In Vitro-Log KB: 7.0
